These are literature values, as cited in patent US9260760B2, “Method for determining complete response to anticancer therapy” (Board of Regents, The University of Texas System, priority 2012, dated 2016).

For data set [1] the following is noted: cited from earlier work.
The subject of data set [2] is metastatic colorectal cancer. As to conditions: cited from earlier work.

Read-outs that look alike come from different tables or passages of the source.

Turning to `CCCCCOC(=O)Nc1nc(=O)n([C@@H]2O[C@H](C)[C@@H](O)[C@H]2O)cc1F` [Capecitabine, capecitabine], in data set [1] (capecitabine at 1250 mg/m2/d), the “grade 3 HFS” value was ≤ 17%, the “patients with HFS onset within six weeks” value was 93% and the “patients with most severe HFS episode within six weeks” value is on record as 67.9%. The HFS in data set [1] (capecitabine starting at 750-1000 mg/m2/d bid with irinotecan (Patt et al., 2004)) is on record as 35%. Moreover, the “incidence of grade ⅔ HFS” value in data set [1] (earlier study, capecitabine 1000 mg/m2/d bid (Lin et al., 2002)) was 34.2%. Further, in data set [2] (first-line therapy), the “Complete response (%)” value was 3%, the “Median OS (months)” value is 12.4-13.2 months, the “Median PFS (months)” value is listed as 4.2 months and the “Response rate (%)” value is reported as 19-25%. For the same molecule, in data set [2] (first-line therapy), the “Stable disease (%)” value is on record as 50%. The “time at which half of the patients experienced tumor progression” value in data set [2] (monotherapy capecitabine) is on record as 2-4 months. In data set [2] (second-line therapy), the “Complete response (%)” value is recorded as 0%, the “Median OS (months)” value was 12.2 months, the “Median PFS (months)” value is 2.1 months and the “Response rate (%)” value was 0%. Moreover, in data set [2] (second-line therapy), the “Stable disease (%)” value is 50%.
